Assays:
rabbits = experiment: Primary skin irritation test on animals (Draize P.I.I.); settings: depilated back; for P.I.I. (Primary Irritation Index): 0.5 ml of 1% solution in 1,3-butylene glycol:ethanol 7:3, observed 24 or 72 hours later; for Evaluation (skin irritation): 1% solution, according to Draize's P.I.I.
procollagen type I = experiment: Effect on collagen biosynthesis (procollagen type I ELISA) in human fibroblasts; format: cell-based; settings: 10^−4M, 24 hours, serum-free medium, relative to control group = 100
Procedure: Human fibroblasts were seeded into 24-well plate at 1×10^5 cells per well and then cultured to 90% of growth.
For each supernatant, procollagen production was measured with procollagen type I ELISA kit.

RARγ = target: T1, RARγ (Homo sapiens, UniProt P13631); experiment: RARE-luciferase reporter assay in transfected CV-1 cells (affinity to retinoic acid receptor), RARγ; format: cell-based; settings: treated 24 hours at final concentration 10^−4M, control group 5000
T1 construct: expressed in transfected cells; host or cells: CV-1 cells (ATCC)
T1 sequence (P13631 1-454): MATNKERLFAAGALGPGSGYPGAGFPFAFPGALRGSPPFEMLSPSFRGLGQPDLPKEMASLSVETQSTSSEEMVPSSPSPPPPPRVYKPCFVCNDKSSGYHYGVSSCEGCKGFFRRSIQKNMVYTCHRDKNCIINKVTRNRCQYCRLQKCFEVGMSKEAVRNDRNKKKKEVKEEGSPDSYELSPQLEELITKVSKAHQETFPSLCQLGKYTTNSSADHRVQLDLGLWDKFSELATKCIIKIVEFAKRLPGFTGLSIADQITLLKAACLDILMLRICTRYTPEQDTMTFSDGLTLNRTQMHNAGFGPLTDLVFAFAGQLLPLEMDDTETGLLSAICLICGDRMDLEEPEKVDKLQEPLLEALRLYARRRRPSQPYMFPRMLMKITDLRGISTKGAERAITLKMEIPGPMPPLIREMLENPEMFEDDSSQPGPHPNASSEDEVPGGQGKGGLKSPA
Procedure, shortened: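 CV-1 cells in DMEM with 2.5% FBS, 5,000 per well, transfected 24 h after seeding with 10 ng pECE-RARα, pECE-RARγ, 100 ng RARE-tk-Luc reporter and 100 ng β-galactosidase vector. Read-out is RARE-driven luciferase.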

RARα = target: T2, RARα (Homo sapiens, UniProt P10276); experiment: RARE-luciferase reporter assay in transfected CV-1 cells (affinity to retinoic acid receptor), RARα; format: cell-based; settings: treated 24 hours at final concentration 10^−4M, control group 1000
T2 construct: expressed in transfected cells; host or cells: CV-1 cells (ATCC)
T2 sequence (P10276 1-462): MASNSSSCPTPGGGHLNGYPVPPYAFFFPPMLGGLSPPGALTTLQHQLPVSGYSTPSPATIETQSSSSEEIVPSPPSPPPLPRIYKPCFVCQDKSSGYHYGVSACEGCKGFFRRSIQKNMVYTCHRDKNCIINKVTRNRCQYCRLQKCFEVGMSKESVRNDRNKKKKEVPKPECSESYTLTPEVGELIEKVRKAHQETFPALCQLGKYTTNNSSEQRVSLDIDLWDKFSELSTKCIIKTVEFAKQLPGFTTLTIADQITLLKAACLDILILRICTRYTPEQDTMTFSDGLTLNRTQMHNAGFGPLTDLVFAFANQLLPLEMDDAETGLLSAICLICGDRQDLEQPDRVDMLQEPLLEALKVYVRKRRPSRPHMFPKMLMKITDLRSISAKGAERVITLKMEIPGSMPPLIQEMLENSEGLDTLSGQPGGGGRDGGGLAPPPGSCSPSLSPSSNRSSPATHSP
Procedure, shortened: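 CV-1 cells co-transfected with pECE-RARα or pECE-RARγ, RARE-tk-Luc reporter and β-galactosidase vector. Starting 24 h post-transfection, cells were treated for 24 h with compounds at a final 10^−4M; luciferase reporter read-out.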

elastase = experiment: Inhibition of elastase expression in human fibroblasts (ELISA kit); format: cell-based; settings: 10^−4M, 24 hours, serum-free medium, relative to control group = 100
Procedure, shortened: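 Elastase in fibroblast culture fluid quantified by sandwich ELISA: 3 h capture, then chromophore-conjugated secondary antibody, then colour development, stopped with 1M sulfuric acid. Absorbance read at 405 nm. Expression given as % of the untreated control absorbance, with control set to 100.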

collagenase = experiment: Inhibition of collagenase expression in human fibroblasts (ELISA kit); format: cell-based; settings: 10^−4M, 24 hours, serum-free medium, relative to control group = 100
Procedure, shortened: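 Serum-starved human fibroblasts were treated for 24 h with 10^−4M test material in serum-free DMEM. Collagenase in the culture fluid was measured by sandwich ELISA read at 405 nm. Values are expressed as % of the untreated control (=100).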

white guinea pigs = experiment: Phototoxicity test (UVA irradiation); settings: for Evaluation (phototoxicity): 1%(w/v) solution, UVA 15 J/cm^2; for Phototoxic index: 50 μl of 1%(w/v) solution, UVA 320~380 nm 15 J/cm^2, observed 24, 48 and 72 hours
Procedure: Test was performed for twenty-five (25) of white guinea pigs whose backs were depilated and fixed. On both sides of the back, six(6) sites of 2 cm×2 cm, three(3) per side were sectioned. Right sites were compared as controls with no irradiation (UV non-irradiation sites) and left sites were irradiated (UV irradiation sites).
30 Minutes later, right sites were shielded with aluminum foil and UVA(320˜380 nm) was irradiated at a distance of about 10 cm therefrom using Waldmann to the final energy of 15 J/cm^2. After 24, 48 and 72 hours elapsed, skin response of guinea pig was observed. […] Evaluation was estimated for each elapsed time, i.e. 24, 48 and 72 hours and maximum scores were selected, to calculate irritation index by the following equation 3. Then, phototoxic index was calculated by the following equation 4. Irritation index=(ΣMaximum of erythema+ΣMaximum of edema)/Number of animals [Equation 3] Phototoxic index=(Irritation index of UV irradiation site)−(Irritation index of UV non-irradiation site) Equation 4]

SMILES | P.I.I. (Primary Irritation Index) (rabbits) | Evaluation (skin irritation) (rabbits) | Collagen biosynthesis (%) (procollagen type I) | Luciferase activity RARγ (RARγ) | Luciferase activity RARα (RARα) | Elastase expression (%) (elastase) | Collagenase expression (%) (collagenase) | Evaluation (phototoxicity) (white guinea pigs) | Phototoxic index (white guinea pigs)
CN(O)C(=O)Cc1ccc(NC(=O)C23CC4CC(CC(C4)C2)C3)cc1 [Example 33, 2-[4-(adamantlycarbonylamino)phenyl]-N-hydroxy-N-methylacetamide] | 0.765 | No irritation | 112 | 11000 | 13400 | 82 | 70 | No phototoxicity (lower value than 0.5, criterion value to be estimated as no phototoxicity) | 0
Cc1ccc(NC(=O)c2ccc(C(=O)NO)cc2)cc1 [Example 35, [4-(N-hydroxycarbamoyl)phenyl]-N-[4-methylphenyl]carboxyamide] | 0.245 | No irritation | 111 | 11300 | 14500 | 71 | 90 | No phototoxicity (lower value than 0.5, criterion value to be estimated as no phototoxicity) | 0
Cc1cccc(NC(=O)c2ccc(C(=O)NO)cc2)c1 [Example 36, [4-(N-hydroxycarbamoyl)phenyl]-N-[3-methylphenyl]carboxyamide] | 0.456 | No irritation | 121 | 11200 | 16700 | 79 | 68 | No phototoxicity (lower value than 0.5, criterion value to be estimated as no phototoxicity) | 0
CCc1ccc(NC(=O)c2ccc(C(=O)NO)cc2)cc1 [Example 37, [4-(N-hydroxycarbamoyl)phenyl]-N-[4-ethylphenyl]carboxyamide] | 0.456 | No irritation | 121 | 10300 | 19000 | 80 | 70 | No phototoxicity (lower value than 0.5, criterion value to be estimated as no phototoxicity) | 0
CCCc1ccc(NC(=O)c2ccc(C(=O)NO)cc2)cc1 [Example 38, [4-(N-hydroxycarbamoyl)phenyl]-N-[4-propylphenyl]carboxyamide] | 0.567 | No irritation | 109 | 10400 | 17500 | 69 | 87 | No phototoxicity (lower value than 0.5, criterion value to be estimated as no phototoxicity) | 0
CC(C)c1ccc(NC(=O)c2ccc(C(=O)NO)cc2)cc1 [Example 39, [4-(N-hydroxycarbamoyl)phenyl]-N-[4-isopropylphenyl]carboxyamide] | 0.145 | No irritation | 105 | 10100 | 18700 | 87 | 78 | No phototoxicity (lower value than 0.5, criterion value to be estimated as no phototoxicity) | 0
CCCCc1ccc(NC(=O)c2ccc(C(=O)NO)cc2)cc1 [Example 40, [4-(N-hydroxycarbamoyl)phenyl]-N-[4-butylphenyl]carboxyamide] | 0.546 | No irritation | 108 | 11200 | 14300 | 90 | 77 | No phototoxicity (lower value than 0.5, criterion value to be estimated as no phototoxicity) | 0
CC(C)(C)c1ccc(NC(=O)c2ccc(C(=O)NO)cc2)cc1 [Example 41, [4-(N-hydroxycarbamoyl)phenyl]-N-[4-tert-butylphenyl]carboxyamide] | 0.367 | No irritation | 115 | 11211 | 14300 | 78 | 88 | No phototoxicity (lower value than 0.5, criterion value to be estimated as no phototoxicity) | 0
Cc1ccc(NC(=O)c2ccc(C(=O)NO)cc2)cc1C [Example 42, [4-(N-hydroxycarbamoyl)phenyl]-N-[3,4-dimethylphenyl]carboxyamide] | 0.987 | No irritation | 116 | 11200 | 14500 | 76 | 78 | No phototoxicity (lower value than 0.5, criterion value to be estimated as no phototoxicity) | 0
O=C(NO)c1ccc(C(=O)NC23CC4CC(CC(C4)C2)C3)cc1 [Example 43, [4-(N-hydroxycarbamoyl)phenyl]-N-adamantyl carboxyamide] | 0.456 | No irritation | 130 | 10600 | 18900 | 70 | 77 | No phototoxicity (lower value than 0.5, criterion value to be estimated as no phototoxicity) | 0
Cc1ccc(N(C)C(=O)c2ccc(C(=O)NO)cc2)cc1 [Example 46, [4-(N-hydroxycarbamoyl)phenyl]-N-methyl-N-[4-methylphenyl]carboxyamide] | 0.345 | No irritation | 121 | 11123 | 13200 | 80 | 83 | No phototoxicity (lower value than 0.5, criterion value to be estimated as no phototoxicity) | 0
Cc1cccc(N(C)C(=O)c2ccc(C(=O)NO)cc2)c1 [Example 47, [4-(N-hydroxycarbamoyl)phenyl]-N-methyl-N-[3-methylphenyl]carboxyamide] | 0.367 | No irritation | 112 | 11700 | 12200 | 83 | 79 | No phototoxicity (lower value than 0.5, criterion value to be estimated as no phototoxicity) | 0
